Data reported in US20250304644A1, “PEPTIDES TRIPLE AGONISTS OF GIP, GLP-1 AND GLP-2” (BAINAN BIOTECH APS, priority 2021, published 2025).
Where “and” joins values, the source holds several entries; their conditions need not be identical. Equal values may be shown once. Read-outs that look alike come from different tables or passages of the source. *1 amine or outer side, *2 acyl side, *3 side chain or, on linkers, in order; H or OH if unused. Where a SMILES comes first, the peptide text is derived from it. Side-chain parts run from the residue outwards. The star is where a group is joined. C18 diacid = O=C(O)CCCCCCCCCCCCCCCCC(=O)*; γGlu = O=C(O)[C@H](CCC(=O)[*:2])N[*:1]; AEEA = NCCOCCOCC(=O)O

What was measured:
Assay type in all cases: cell-based
human GIPR = molecular target: T1, human GIPR (Homo sapiens, UniProt P48546); experiment: cAMP assay (HitHunter) in transiently transfected COS-7 cells expressing human GIPR
T1 construct: host or cells: COS-7
T1 sequence (P48546 22-466): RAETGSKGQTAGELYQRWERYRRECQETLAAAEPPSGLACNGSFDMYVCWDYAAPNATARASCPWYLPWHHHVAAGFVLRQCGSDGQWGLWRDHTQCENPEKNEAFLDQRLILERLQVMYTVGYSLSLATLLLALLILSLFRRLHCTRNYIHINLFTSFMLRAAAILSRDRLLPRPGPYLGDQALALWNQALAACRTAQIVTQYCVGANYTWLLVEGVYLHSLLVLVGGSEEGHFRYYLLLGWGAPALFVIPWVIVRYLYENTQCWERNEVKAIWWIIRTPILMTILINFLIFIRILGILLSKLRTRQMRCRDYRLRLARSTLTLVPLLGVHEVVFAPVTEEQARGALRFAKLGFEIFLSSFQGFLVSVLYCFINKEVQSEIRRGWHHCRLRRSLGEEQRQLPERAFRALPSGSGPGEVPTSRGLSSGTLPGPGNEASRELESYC

human GLP-2R = molecular target: T2, human GLP-2R (Homo sapiens, UniProt O95838); experiment: cAMP assay (HitHunter) in transiently transfected COS-7 cells expressing human GLP-2R
T2 construct: host or cells: COS-7
T2 sequence (O95838 1-553): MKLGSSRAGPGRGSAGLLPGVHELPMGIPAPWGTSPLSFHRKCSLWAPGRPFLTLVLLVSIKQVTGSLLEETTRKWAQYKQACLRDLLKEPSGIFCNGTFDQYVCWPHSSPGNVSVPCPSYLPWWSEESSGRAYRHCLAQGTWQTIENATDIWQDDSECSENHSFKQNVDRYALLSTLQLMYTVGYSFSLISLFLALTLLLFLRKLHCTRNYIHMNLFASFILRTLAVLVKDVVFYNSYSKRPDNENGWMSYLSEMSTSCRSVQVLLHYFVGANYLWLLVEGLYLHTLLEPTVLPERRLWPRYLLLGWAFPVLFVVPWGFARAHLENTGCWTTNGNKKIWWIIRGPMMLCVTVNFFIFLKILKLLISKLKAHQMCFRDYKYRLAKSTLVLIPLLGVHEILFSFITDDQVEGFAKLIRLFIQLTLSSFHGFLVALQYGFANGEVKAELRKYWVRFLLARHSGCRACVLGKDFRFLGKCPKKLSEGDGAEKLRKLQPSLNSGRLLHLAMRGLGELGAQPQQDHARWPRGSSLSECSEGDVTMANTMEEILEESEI

human GLP-1R = molecular target: T3, human GLP-1R (Homo sapiens, UniProt P43220); experiment: cAMP assay (HitHunter) in transiently transfected COS-7 cells expressing human GLP-1R
T3 construct: host or cells: COS-7
T3 sequence (P43220 24-463): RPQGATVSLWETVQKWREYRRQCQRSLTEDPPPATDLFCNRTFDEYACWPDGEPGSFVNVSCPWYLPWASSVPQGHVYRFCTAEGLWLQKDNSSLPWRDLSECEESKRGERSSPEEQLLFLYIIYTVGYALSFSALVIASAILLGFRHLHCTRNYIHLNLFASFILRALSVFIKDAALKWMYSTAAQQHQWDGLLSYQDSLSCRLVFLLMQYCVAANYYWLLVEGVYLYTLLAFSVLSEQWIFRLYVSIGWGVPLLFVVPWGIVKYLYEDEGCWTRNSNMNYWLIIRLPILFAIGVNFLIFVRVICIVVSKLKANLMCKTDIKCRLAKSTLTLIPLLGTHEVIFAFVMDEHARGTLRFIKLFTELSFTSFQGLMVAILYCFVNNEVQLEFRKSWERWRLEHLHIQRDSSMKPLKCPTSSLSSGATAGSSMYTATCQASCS

[1] = molecular target: human glucagon receptor (GCGR) (Homo sapiens, UniProt P47871); experiment: Gs activation measured as cAMP accumulation on human glucagon receptor (FIG. 1 radar plot); details: read-out: −p Log EC50 on human glucagon receptor (GCGR) (converted)
Chain of human glucagon receptor (GCGR) (P47871 26-477): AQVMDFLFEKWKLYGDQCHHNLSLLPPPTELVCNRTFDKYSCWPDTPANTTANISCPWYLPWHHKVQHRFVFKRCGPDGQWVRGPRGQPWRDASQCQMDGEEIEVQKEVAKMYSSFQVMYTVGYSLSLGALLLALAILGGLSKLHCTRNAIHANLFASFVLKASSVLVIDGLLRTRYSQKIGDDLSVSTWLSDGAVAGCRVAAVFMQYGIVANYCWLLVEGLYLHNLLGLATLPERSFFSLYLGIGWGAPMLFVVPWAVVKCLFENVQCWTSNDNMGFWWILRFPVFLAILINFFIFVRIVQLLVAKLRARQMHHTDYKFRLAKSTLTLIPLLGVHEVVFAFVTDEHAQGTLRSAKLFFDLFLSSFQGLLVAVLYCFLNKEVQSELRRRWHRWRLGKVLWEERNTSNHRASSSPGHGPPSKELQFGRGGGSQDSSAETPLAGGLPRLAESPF
From the text: Here, the compounds 20, 21, 22, 28, 30, 31,32, 33, 34, 35 are shown in terms of their potencies in Gs activation, measured as CAMP accumulation, depicted in a radar plot. The numbers refer to −p Log EC50 values. […] The outer rings correspond to higher potencies, the inner rings correspond to lower potencies.

human SNAP-tagged GIPR = molecular target: T4, human SNAP-tagged GIPR (Homo sapiens, UniProt P48546); experiment: Receptor internalization assay, HEK293A cells expressing human SNAP-tagged GIPR
T4 construct: host or cells: HEK293A
T4 sequence (P48546 22-466): T1 sequence (P48546 22-466)

human SNAP-tagged GLP-1R = molecular target: T5, human SNAP-tagged GLP-1R (Homo sapiens, UniProt P43220); experiment: Receptor internalization assay, HEK293A cells expressing human SNAP-tagged GLP-1R; details: for Absolute hGLP-1R internalization (AUC): AUC of sigmoid curves up to 1 μM, 60 minutes at 37° C.; for Relative hGLP-1R internalization (%): relative to hGLP-1 = 100
T5 construct: expressed in transfected cells; host or cells: HEK293A
T5 sequence (P43220 24-463): as the sequence (P43220 24-463) above

human SNP-tagged GLP-2R = molecular target: T6, human SNP-tagged GLP-2R (Homo sapiens, UniProt O95838); experiment: Receptor internalization assay, HEK293A cells expressing human SNAP-tagged GLP-2R; details: for Absolute hGLP-2R internalization (AUC): AUC of sigmoid curves up to 1 μM, 60 minutes at 37° C.; for Relative hGLP-2R internalization (%): relative to native ligand = 100
T6 construct: expressed in transfected cells; host or cells: HEK293A
T6 sequence (O95838 1-553): T2 sequence (O95838 1-553)

[2] = COS-7, read-out: Efficacy GIPR (Emax)
[3] = COS-7, read-out: Efficacy GLP-2R (Emax)
[4] = COS-7, read-out: Efficacy GLP-1R (Emax)

| SMILES | Emax (human GIPR; [2]) [%] | Emax (human GLP-2R; [3]) [%] | Emax (human GLP-1R; [4]) [%] | EC50 [1] [µM] | Absolute hGIPR internalization (AUC) (human SNAP-tagged GIPR) | Relative hGIPR internalization (%) (human SNAP-tagged GIPR) | Absolute hGLP-1R internalization (AUC) (human SNAP-tagged GLP-1R) | Relative hGLP-1R internalization (%) (human SNAP-tagged GLP-1R) | Absolute hGLP-2R internalization (AUC) (human SNP-tagged GLP-2R) | Relative hGLP-2R internalization (%) (human SNP-tagged GLP-2R) | Emax (human GIPR; COS-7, normalized to highest concentration of the endogenous ligand, read-out: Efficacy GIPR (Emax)) [%] | loss in GIP potency in cAMP (human GIPR; fatty acid in position 17 compared to position 16 (Compound 30)) [fold] | Emax (human GLP-2R; COS-7, normalized to highest concentration of the endogenous ligand, read-out: Efficacy GLP-2R (Emax)) [%] | EC50 (human GLP-2R; cAMP, COS-7 cells, human GLP-2R, read-out: EC50 (nM) GLP-2R) [nM] | Emax (human GLP-1R; COS-7, normalized to highest concentration of the endogenous ligand, read-out: Efficacy GLP-1R (Emax)) [%] | Absolute hGIPR internalization (AUC) (human SNAP-tagged GIPR; AUC of sigmoid curves up to 1 μM, 60 minutes at 37° C.) | Relative hGIPR internalization (%) (human SNAP-tagged GIPR; relative to hGIP 1-42 = 100) |
| --- | --- | --- | --- | --- | --- | --- | --- | --- | --- | --- | --- | --- | --- | --- | --- | --- | --- |
| CC[C@H](C)[C@H](NC(=O)[C@H](Cc1ccccc1)NC(=O)[C@H](CC(=O)O)NC(=O)[C@H](CCCNC(=N)N)NC(=O)[C@H](C)NC(=O)[C@H](C)NC(=O)[C@H](CC(C)C)NC(=O)[C@H](CCCCNC(=O)COCCOCCNC(=O)COCCOCCNC(=O)CC[C@H](NC(=O)CCCCCCCCCCCCCCCCC(=O)O)C(=O)O)NC(=O)[C@H](CC(=O)O)NC(=O)[C@H](CC(C)C)NC(=O)C(C)(C)NC(=O)[C@@H](NC(=O)[C@H](CO)NC(=O)[C@H](Cc1ccc(O)cc1)NC(=O)[C@H](CC(=O)O)NC(=O)[C@H](CO)NC(=O)[C@@H](NC(=O)[C@H](Cc1ccccc1)NC(=O)[C@@H](NC(=O)CNC(=O)[C@H](CC(=O)O)NC(=O)[C@H](C)NC(=O)[C@@H](N)Cc1c[nH]cn1)[C@@H](C)O)[C@@H](C)CC)[C@@H](C)O)C(=O)N[C@@H](CC(N)=O)C(=O)N[C@@H](Cc1c[nH]c2ccccc12)C(=O)N[C@@H](CC(C)C)C(=O)N[C@H](C(=O)N[C@@H](CCC(N)=O)C(=O)N[C@H](C(=O)N[C@@H](CCCCN)C(=O)NCC(=O)N[C@@H](CCCCN)C(=O)N[C@@H](CCCCN)C(=O)O)[C@@H](C)O)[C@@H](C)CC [Compound 31] | 85 | 79 | 89 | > 0.1 | 16.0 | 43% | 4.9 | 5.8 | 30.6 | 63.0 |  |  |  |  |  |  |  |
| CC[C@H](C)[C@H](NC(=O)[C@H](Cc1ccccc1)NC(=O)[C@H](CC(=O)O)NC(=O)[C@H](CCCNC(=N)N)NC(=O)[C@H](C)NC(=O)[C@H](C)NC(=O)[C@H](CCCCNC(=O)COCCOCCNC(=O)COCCOCCNC(=O)CC[C@H](NC(=O)CCCCCCCCCCCCCCCCC(=O)O)C(=O)O)NC(=O)[C@H](CC(N)=O)NC(=O)[C@H](CC(=O)O)NC(=O)[C@H](CC(C)C)NC(=O)[C@@H](NC(=O)[C@@H](NC(=O)[C@H](CO)NC(=O)[C@H](Cc1ccc(O)cc1)NC(=O)[C@H](CC(=O)O)NC(=O)[C@H](CO)NC(=O)[C@@H](NC(=O)[C@H](Cc1ccccc1)NC(=O)[C@@H](NC(=O)CNC(=O)[C@H](CC(=O)O)NC(=O)[C@H](C)NC(=O)[C@@H](N)Cc1c[nH]cn1)[C@@H](C)O)[C@@H](C)CC)[C@@H](C)O)[C@@H](C)CC)C(=O)N[C@@H](CC(N)=O)C(=O)N[C@@H](Cc1c[nH]c2ccccc12)C(=O)N[C@@H](CC(C)C)C(=O)N[C@H](C(=O)N[C@@H](CCC(N)=O)C(=O)N[C@H](C(=O)N[C@@H](CCCCN)C(=O)NCC(=O)N[C@@H](CCCCN)C(=O)N[C@@H](CCCCN)C(=O)O)[C@@H](C)O)[C@@H](C)CC [Compound 32] (H-HADGTFISDYSTILDNK([AEEA-AEEA-γGlu-C18 diacid])AARDFINWLIQTKGKK-OH) |  |  |  | > 0.1 |  |  | 7.0 | 8.3 | 15.0 | 30.8 | 80 | > 10 | 77 | 3.2 | 84 | 6.5 | 18 |
| CC[C@H](C)[C@H](NC(=O)[C@H](Cc1ccccc1)NC(=O)[C@H](CC(=O)O)NC(=O)[C@H](CCCNC(=N)N)NC(=O)[C@H](C)NC(=O)[C@H](C)NC(=O)[C@H](CC(C)C)NC(=O)[C@H](CC(N)=O)NC(=O)[C@H](CC(=O)O)NC(=O)[C@H](CC(C)C)NC(=O)[C@@H](NC(=O)[C@@H](NC(=O)[C@H](CO)NC(=O)[C@H](Cc1ccc(O)cc1)NC(=O)[C@H](CC(=O)O)NC(=O)[C@H](CO)NC(=O)[C@@H](NC(=O)[C@H](Cc1ccccc1)NC(=O)[C@@H](NC(=O)CNC(=O)[C@H](CC(=O)O)NC(=O)[C@H](C)NC(=O)[C@@H](N)Cc1c[nH]cn1)[C@@H](C)O)[C@@H](C)CC)[C@@H](C)O)[C@@H](C)CC)C(=O)N[C@@H](CC(N)=O)C(=O)N[C@@H](Cc1c[nH]c2ccccc12)C(=O)N[C@@H](CC(C)C)C(=O)N[C@H](C(=O)N[C@@H](CCC(N)=O)C(=O)N[C@H](C(=O)N[C@@H](CCCCN)C(=O)NCC(=O)N[C@@H](CCCCN)C(=O)N[C@@H](CCCCNC(=O)COCCOCCNC(=O)COCCOCCNC(=O)CC[C@H](NC(=O)CCCCCCCCCCCCCCCCC(=O)O)C(=O)O)C(=O)O)[C@@H](C)O)[C@@H](C)CC [Compound 33] | 88 | 90 | 99 | > 0.1 | 15.8 | 43% | 6.4 | 7.7 | 6.4 | 13.2 |  |  |  |  |  |  |  |
| CC[C@H](C)[C@H](NC(=O)[C@H](Cc1ccccc1)NC(=O)[C@H](CC(=O)O)NC(=O)[C@H](CCCNC(=N)N)NC(=O)[C@H](C)NC(=O)[C@H](C)NC(=O)[C@H](CC(C)C)NC(=O)[C@H](CC(N)=O)NC(=O)[C@H](CC(=O)O)NC(=O)[C@H](CC(C)C)NC(=O)C(C)(C)NC(=O)[C@@H](NC(=O)[C@H](CO)NC(=O)[C@H](Cc1ccc(O)cc1)NC(=O)[C@H](CC(=O)O)NC(=O)[C@H](CO)NC(=O)[C@@H](NC(=O)[C@H](Cc1ccccc1)NC(=O)[C@@H](NC(=O)CNC(=O)[C@H](CC(=O)O)NC(=O)[C@H](C)NC(=O)[C@@H](N)Cc1c[nH]cn1)[C@@H](C)O)[C@@H](C)CC)[C@@H](C)O)C(=O)N[C@@H](CC(N)=O)C(=O)N[C@@H](Cc1c[nH]c2ccccc12)C(=O)N[C@@H](CC(C)C)C(=O)N[C@H](C(=O)N[C@@H](CCC(N)=O)C(=O)N[C@H](C(=O)N[C@@H](CCCCN)C(=O)NCC(=O)N[C@@H](CCCCN)C(=O)N[C@@H](CCCCN)C(=O)N[C@@H](CCCCNC(=O)COCCOCCNC(=O)COCCOCCNC(=O)CC[C@H](NC(=O)CCCCCCCCCCCCCCCCC(=O)O)C(=O)O)C(=O)O)[C@@H](C)O)[C@@H](C)CC [Compound 35] | 99 | 93 | 92 | > 0.1 | 14.3 | 39% and 38% | 2.0 | 2.4 | 7.6 | 15.7 |  |  |  |  |  |  |  |
